In ChEMBL document CHEMBL1201862, “PubChem BioAssay data set” (2004):
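Cells were grown in 96-well plates and exposed to each compound for 48 hours at five concentrations; endpoints were interpolated linearly between bracketing concentrations, or set to the highest concentration if not reached. Abbreviation: GI50, concentration required for 50% inhibition of growth.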 The source made the active and inactive calls. Rule as the data show it: active = GI50 up to about 1.1 µM and inactive = higher.

Columns and labels:
Assay in all cases: NCI anticancer screen, dose series, 48 h
[1] = test system: ACHN
[2] = test system: COLO 205
[3] = test system: EKVX
[4] = test system: HOP-92
[5] = test system: KM12
[6] = test system: MOLT-4
[7] = test system: Malme-3M
[8] = test system: NCI-H522
[9] = test system: OVCAR-3
[10] = test system: RXF 393
[11] = test system: SK-MEL-2
[12] = test system: SK-MEL-5
[13] = test system: SK-OV-3
[14] = test system: SN12C
[15] = test system: SNB-19
[16] = test system: SW-620
[17] = test system: HCT-116

Row | SMILES | GI50 [1] | GI50 [2] | GI50 [3] | GI50 [4] | GI50 [5] | GI50 [6] | GI50 [7] | GI50 [8] | GI50 [9] | GI50 [10] | GI50 [11] | GI50 [12] | GI50 [13] | GI50 [14] | GI50 [15] | GI50 [16] | GI50 [17]
1 | COC(=O)C1=C(C(=O)OC)C2=S(SC3=C2CCCC3)S1 (stereo not drawn) | 28.1 µM (inactive) | 23.4 µM (inactive) | > 100 µM (inactive) | 6.05 µM (inactive) | 20.8 µM (inactive) | 12 µM (inactive) | 20.1 µM (inactive) | 2.2 µM (inactive) | 16.4 µM (inactive) | 13.3 µM (inactive) | 23.1 µM (inactive) | 0.378 µM (active) | > 100 µM (inactive) | 25.5 µM (inactive) | > 100 µM (inactive) | 0.467 µM (active) | –
2 | CCCCCCCCCCCCCCCCCC(=O)NCC(COP(=O)([O-])OCC[N+](C)(C)C)OC (stereo not drawn) | 10.8 µM (inactive) | 1.48 µM (inactive) | 16.3 µM (inactive) | 2.64 µM (inactive) | 0.766 µM (active) | 1.76 µM (inactive) | 8.59 µM (inactive) | – | 3.37 µM (inactive) | 0.652 µM (active) | – | 15.2 µM (inactive) | 15.2 µM (inactive) | 3.85 µM (inactive) | 1.91 µM (inactive) | 10.9 µM (inactive) | 5.66 µM (inactive)
3 | [O-]/[N+](=C\c1ccccc1)[C@H](COCc1ccccc1)c1ccccc1 | 66.4 µM (inactive) | > 100 µM (inactive) | 25.1 µM (inactive) | 24.8 µM (inactive) | 70.3 µM (inactive) | 36.5 µM (inactive) | > 100 µM (inactive) | 29.5 µM (inactive) | 27.6 µM (inactive) | 36.6 µM (inactive) | 27.3 µM (inactive) | 63.1 µM (inactive) | > 100 µM (inactive) | – | 59.8 µM (inactive) | > 100 µM (inactive) | 40.8 µM (inactive)
4 | Cc1ccc(Nc2nc(C)c(C(/C=C/c3ccc4c(c3)OCO4)=N/Nc3ccc([N+](=O)[O-])cc3[N+](=O)[O-])s2)c([N+](=O)[O-])c1 | 21.5 µM (inactive) | 56.5 µM (inactive) | 24.5 µM (inactive) | – | 24 µM (inactive) | 21.7 µM (inactive) | 65.3 µM (inactive) | 14.2 µM (inactive) | 35.2 µM (inactive) | 38 µM (inactive) | 28 µM (inactive) | – | 26.7 µM (inactive) | 28 µM (inactive) | 83 µM (inactive) | 45 µM (inactive) | 52.7 µM (inactive)
5 | NCc1c(C(N)=O)ncn1Cc1ccccc1 | > 100 µM (inactive) | > 100 µM (inactive) | > 100 µM (inactive) | 65.9 µM (inactive) | – | > 100 µM (inactive) | – | – | > 100 µM (inactive) | > 100 µM (inactive) | – | > 100 µM (inactive) | > 100 µM (inactive) | > 100 µM (inactive) | > 100 µM (inactive) | > 100 µM (inactive) | > 100 µM (inactive)
6 | CC(=O)NNc1nc(C)c(C(=O)NNC(=O)C(=O)Nc2ccc(Cl)c([N+](=O)[O-])c2)s1 | 41.1 µM (inactive) | > 100 µM (inactive) | > 100 µM (inactive) | 43.3 µM (inactive) | 88.9 µM (inactive) | 20 µM (inactive) | 71.4 µM (inactive) | 26.2 µM (inactive) | 30.4 µM (inactive) | – | > 100 µM (inactive) | > 100 µM (inactive) | > 100 µM (inactive) | 71.8 µM (inactive) | > 100 µM (inactive) | 32.2 µM (inactive) | 85.3 µM (inactive)
7 | Cc1ccc(C(=O)Nc2ccccc2)cc1/N=N/N(C)C | > 100 µM (inactive) | – | > 100 µM (inactive) | > 100 µM (inactive) | > 100 µM (inactive) | – | – | 35.2 µM (inactive) | > 100 µM (inactive) | – | > 100 µM (inactive) | > 100 µM (inactive) | – | > 100 µM (inactive) | > 100 µM (inactive) | > 100 µM (inactive) | > 100 µM (inactive)
8 | CCC(=O)OC[n+]1ccc2c(C)c3[nH]c4ccc(OC)cc4c3c(C)c2c1 | 0.0485 µM (active) | 0.0906 µM (active) | – | 0.0556 µM (active) | 0.0875 µM (active) | 0.0142 µM (active) | 0.627 µM (active) | – | 1.34 µM (inactive) | 0.166 µM (active) | 0.291 µM (active) | 0.728 µM (active) | – | < 0.01 µM (active) | 1.57 µM (inactive) | 0.0288 µM (active) | 0.0182 µM (active)
9 | COC(=O)C1N=CSCC1(C)O (stereo not drawn) | > 100 µM (inactive) | > 100 µM (inactive) | > 100 µM (inactive) | > 100 µM (inactive) | > 100 µM (inactive) | > 100 µM (inactive) | > 100 µM (inactive) | – | > 100 µM (inactive) | > 100 µM (inactive) | > 100 µM (inactive) | > 100 µM (inactive) | > 100 µM (inactive) | > 100 µM (inactive) | > 100 µM (inactive) | > 100 µM (inactive) | > 100 µM (inactive)
10 | O=C(/C=C\c1cccc2ccccc12)c1ccc(Cl)cc1Cl | 18.6 µM (inactive) | 22.4 µM (inactive) | 36.5 µM (inactive) | – | 17.2 µM (inactive) | 28.5 µM (inactive) | 26.7 µM (inactive) | 19.2 µM (inactive) | 20.2 µM (inactive) | – | – | 36.7 µM (inactive) | > 100 µM (inactive) | > 100 µM (inactive) | 28.8 µM (inactive) | 20 µM (inactive) | 18.7 µM (inactive)
11 | CCCCCCCCCCCCC/C=C1\C[C@H](O)COC1=O | 15.9 µM (inactive) | – | 17.5 µM (inactive) | 11.6 µM (inactive) | 16.3 µM (inactive) | – | 21 µM (inactive) | 17.1 µM (inactive) | 17.5 µM (inactive) | 20 µM (inactive) | 16.6 µM (inactive) | 13.7 µM (inactive) | 20.8 µM (inactive) | 14.9 µM (inactive) | 18.9 µM (inactive) | 15.4 µM (inactive) | 15.9 µM (inactive)
12 | COc1cc(C(C)c2cc3c(cc2OCCNC(=O)COc2cc4c(cc2C(C)c2cc(OC)c(OC)c(OC)c2)OCO4)OCO3)cc(OC)c1OC (stereo not drawn) | 63.2 µM (inactive) | 48.2 µM (inactive) | 29.6 µM (inactive) | – | > 100 µM (inactive) | 7.13 µM (inactive) | > 100 µM (inactive) | 29.5 µM (inactive) | 67.3 µM (inactive) | > 100 µM (inactive) | > 100 µM (inactive) | > 100 µM (inactive) | – | 60 µM (inactive) | > 100 µM (inactive) | > 100 µM (inactive) | 87.9 µM (inactive)
13 | CCOC(=O)NC(=O)c1cn(CCN2CCN(C(=O)CCCCCCCCCCNc3ncnc4[nH]cnc34)CC2)c(=O)[nH]c1=O | 37.8 µM (inactive) | > 100 µM (inactive) | > 100 µM (inactive) | > 100 µM (inactive) | > 100 µM (inactive) | 43.9 µM (inactive) | 6.7 µM (inactive) | – | > 100 µM (inactive) | > 100 µM (inactive) | > 100 µM (inactive) | 50.4 µM (inactive) | > 100 µM (inactive) | > 100 µM (inactive) | > 100 µM (inactive) | > 100 µM (inactive) | 40.1 µM (inactive)
14 | O=C(Nc1ccccc1)c1ccc(Cl)c([N+](=O)[O-])c1 | – | 28.2 µM (inactive) | 28.4 µM (inactive) | – | 3.09 µM (inactive) | 3.85 µM (inactive) | 20.5 µM (inactive) | 6.79 µM (inactive) | 19.1 µM (inactive) | 21.7 µM (inactive) | 13.2 µM (inactive) | 5.82 µM (inactive) | 23.6 µM (inactive) | 5.21 µM (inactive) | 15.5 µM (inactive) | 4.85 µM (inactive) | –
15 | COc1ccc(/C=C/C(=O)C(C)(C)CN2CCCCC2)cc1 | 24.4 µM (inactive) | 15.6 µM (inactive) | 44.7 µM (inactive) | – | 22.1 µM (inactive) | 21.8 µM (inactive) | 22.2 µM (inactive) | 14 µM (inactive) | 18.2 µM (inactive) | 21.3 µM (inactive) | 16.3 µM (inactive) | 19 µM (inactive) | 21.5 µM (inactive) | 18.3 µM (inactive) | 57.7 µM (inactive) | 1.13 µM (inactive) | 16.2 µM (inactive)
16 | CC(=O)NNc1nc(C)c(C(/C=C/c2ccc(Cl)cc2)=N/NC(=O)C[N+](C)(C)C)s1 | > 100 µM (inactive) | > 100 µM (inactive) | > 100 µM (inactive) | > 100 µM (inactive) | > 100 µM (inactive) | > 100 µM (inactive) | > 100 µM (inactive) | > 100 µM (inactive) | > 100 µM (inactive) | > 100 µM (inactive) | > 100 µM (inactive) | > 100 µM (inactive) | > 100 µM (inactive) | – | > 100 µM (inactive) | > 100 µM (inactive) | > 100 µM (inactive)
17 | CC(=O)N(C)c1ccc2c(ccc[n+]2[O-])c1[N+](=O)[O-] | > 100 µM (inactive) | > 100 µM (inactive) | > 100 µM (inactive) | – | > 100 µM (inactive) | > 100 µM (inactive) | > 100 µM (inactive) | – | > 100 µM (inactive) | > 100 µM (inactive) | > 100 µM (inactive) | > 100 µM (inactive) | – | > 100 µM (inactive) | – | > 100 µM (inactive) | > 100 µM (inactive)
18 | O=[N+]([O-])c1nccn1CC(O)c1ccccc1 (stereo not drawn) | > 100 µM (inactive) | > 100 µM (inactive) | > 100 µM (inactive) | > 100 µM (inactive) | > 100 µM (inactive) | > 100 µM (inactive) | > 100 µM (inactive) | > 100 µM (inactive) | > 100 µM (inactive) | > 100 µM (inactive) | > 100 µM (inactive) | > 100 µM (inactive) | > 100 µM (inactive) | > 100 µM (inactive) | > 100 µM (inactive) | > 100 µM (inactive) | –
